Legend:
[1] = molecular target: BRM (Homo sapiens, UniProt P51531); test: ATPase catalytic activity assay (ADP-Glo), BRM; conditions: 30 nM BRM, 400 μM ATP; for IC50: BRM ATPase: IC50 (uM)
[2] = molecular target: BRG-1 (Homo sapiens, UniProt P51532); test: ATPase catalytic activity assay (ADP-Glo), BRG-1; conditions: for Emax: 1 h, read-out: BRG1 Max % Inhibition, ADP-Glo, 30 nM BRG-1, 400 μM ATP
Procedure: The ATPase catalytic activity of BRM or BRG-1 was measured by an in vitro biochemical assay using ADP-Glo™ (Promega, V9102). The ADP-Glo™ kinase assay is performed in two steps once the reaction is complete. The first step is to deplete any unconsumed ATP in the reaction. The second step is to convert the reaction product ADP to ATP, which will be utilized by the luciferase to generate luminesce and be detected by a luminescence reader, such as Envision.
Then following addition of 5 μL of ADP-Glo™ Reagent provided in the kit, the reaction incubates at room temperature for 40 minutes. Then 10 μL of Kinase Detection Reagent provided in the kit is added to convert ADP to ATP, and the reaction incubates at room temperature for 60 minutes. Finally, luminescence measurement is collected with a plate-reading luminometer, such as Envision.

[3] = system: Uveal melanoma cell lines (92-1, MP41, MP38, MP46), hematologic cancer and other cancer cell lines; test: Growth of uveal melanoma, hematological and other cancer cell lines, day 3 and day 7 (Cell-titer glo, GI50), Compound A; format: cell-based; conditions: FIG. 1
Procedure: (§1) Procedure: Uveal melanoma cell lines (92-1, MP41, MP38, MP46), prostate cancer cell lines (LNCAP), lung cancer cell lines (NCI-H1299), and immortalized embryonic kidney lines (HEK293T) were plated into 96 well plates with growth media (see Table 5). […] Cells were incubated at 37 degrees Celsius for 3 days. After three days of treatment, the media was removed from the cells and 30 microliters of TrypLE (Gibco) was added to cells for 10 minutes. Cells were detached from the plates and resuspended with the addition of 170 microliters of growth media. Cells from two DMSO-treated control wells were counted, and the initial number of cells plated at the start of the experiment, were re-plated into fresh-compound containing plates for an additional four days at 37 degrees Celsius. At day 7, cells were harvested as described above. On day 3 and day 7, relative cell growth was measured by the addition of Cell-titer glo (Promega) and luminescence was measured on an Envision plate reader (Perkin Elmer). […] At the time of cell splitting on days […], cells were split into new 96 well plates, and fresh compound was added four hours after re-plating.

[4] = system: Uveal melanoma cell lines, 92-1 or MP41; test: Comparison to clinical PKC and MEK inhibitors in uveal melanoma cell lines, 3-day growth (Compound A); format: cell-based; conditions: FIG. 2A and 2B
Procedure: (§2) Procedure: Uveal melanoma cell lines, 92-1 or MP41, were plated in 96 well plates in the presence of growth media (see Table 26). […] Cells were incubated at 37 degrees Celsius for 3 days. After three days of treatment, cell growth was measured with Cell-titer glow (Promega), and luminescence was read on an Envision plate reader (Perkin Elmer).

[5] = system: parental MP41 cells; test: 7-day growth inhibition assay, parental cells; format: cell-based; conditions: 7-day assay; FIG. 7B
Procedure: as §1
(§3) Procedure: MP41 uveal melanoma cells were made resistant to the PKC inhibitor (LXS196; MedChemExpress), by long-term culture in growth media (see Table 27) containing increasing concentrations of the compound, up to 1 micromolar.

[6] = system: Uveal melanoma cell lines, 92-1 or MP41; test: Comparison to clinical PKC and MEK inhibitors in uveal melanoma cell lines, 3-day growth (Compound B); format: cell-based; conditions: FIG. 6A and 6B
Procedure: as §2, with “27).” for “26).”, “37° C.” for “37 degrees Celsius”

[7] = system: Uveal melanoma cell lines (92-1, MP41, MP38, MP46) and Non-small cell lung cancer cells (NCIH1299); test: Growth of uveal melanoma and non-small cell lung cancer cell lines, 3 days (Cell-titer glow); format: cell-based; conditions: 0 to 10 micromolar, FIG. 5
Procedure: Procedure: Uveal melanoma cell lines (92-1, MP41, MP38, MP46) and Non-small cell lung cancer cells (NCIH1299) were plated into 96 well plates with growth media (see Table 27). BRG1/BRM ATPase inhibitor, compound 67, was dissolved in DMSO and added to the cells in a concentration gradient from 0 to 10 micromolar at the time of plating. Cells were incubated at 37° C. for 3 days. After three days of treatment, cell growth was measured with Cell-titer glow (Promega), and luminescence was read on an Envision plate reader (Perkin Elmer).

[8] = system: PKC inhibitor (PKCi)-resistant MP41 uveal melanoma cells; test: 7-day growth inhibition assay, PKC inhibitor-resistant cells; format: cell-based; conditions: 7-day assay
Procedure: as §1, §3

[9] = Body weight / tolerability in tumor-bearing mice; format: in vivo; conditions: all treatments, once daily oral gavage, 3 weeks; FIG. 8C
Procedure: Procedure: Nude mice (Envigo) were engrafted subcutaneously in the axillary region with 5×10^6 92-1 uveal melanoma cells in 50% Matrigel. Tumors were grown to a mean of ˜200 mm^3, at which point mice were grouped and dosing was initiated. […] Tumor volumes and body weights were measured over the course of 3 weeks, and doses were adjusted by body weight to achieve the proper dose in terms of mg/kg. At this time, animals were sacrificed, and tumors were dissected and imaged.

Sequence of BRG-1 (P51532 whole entry): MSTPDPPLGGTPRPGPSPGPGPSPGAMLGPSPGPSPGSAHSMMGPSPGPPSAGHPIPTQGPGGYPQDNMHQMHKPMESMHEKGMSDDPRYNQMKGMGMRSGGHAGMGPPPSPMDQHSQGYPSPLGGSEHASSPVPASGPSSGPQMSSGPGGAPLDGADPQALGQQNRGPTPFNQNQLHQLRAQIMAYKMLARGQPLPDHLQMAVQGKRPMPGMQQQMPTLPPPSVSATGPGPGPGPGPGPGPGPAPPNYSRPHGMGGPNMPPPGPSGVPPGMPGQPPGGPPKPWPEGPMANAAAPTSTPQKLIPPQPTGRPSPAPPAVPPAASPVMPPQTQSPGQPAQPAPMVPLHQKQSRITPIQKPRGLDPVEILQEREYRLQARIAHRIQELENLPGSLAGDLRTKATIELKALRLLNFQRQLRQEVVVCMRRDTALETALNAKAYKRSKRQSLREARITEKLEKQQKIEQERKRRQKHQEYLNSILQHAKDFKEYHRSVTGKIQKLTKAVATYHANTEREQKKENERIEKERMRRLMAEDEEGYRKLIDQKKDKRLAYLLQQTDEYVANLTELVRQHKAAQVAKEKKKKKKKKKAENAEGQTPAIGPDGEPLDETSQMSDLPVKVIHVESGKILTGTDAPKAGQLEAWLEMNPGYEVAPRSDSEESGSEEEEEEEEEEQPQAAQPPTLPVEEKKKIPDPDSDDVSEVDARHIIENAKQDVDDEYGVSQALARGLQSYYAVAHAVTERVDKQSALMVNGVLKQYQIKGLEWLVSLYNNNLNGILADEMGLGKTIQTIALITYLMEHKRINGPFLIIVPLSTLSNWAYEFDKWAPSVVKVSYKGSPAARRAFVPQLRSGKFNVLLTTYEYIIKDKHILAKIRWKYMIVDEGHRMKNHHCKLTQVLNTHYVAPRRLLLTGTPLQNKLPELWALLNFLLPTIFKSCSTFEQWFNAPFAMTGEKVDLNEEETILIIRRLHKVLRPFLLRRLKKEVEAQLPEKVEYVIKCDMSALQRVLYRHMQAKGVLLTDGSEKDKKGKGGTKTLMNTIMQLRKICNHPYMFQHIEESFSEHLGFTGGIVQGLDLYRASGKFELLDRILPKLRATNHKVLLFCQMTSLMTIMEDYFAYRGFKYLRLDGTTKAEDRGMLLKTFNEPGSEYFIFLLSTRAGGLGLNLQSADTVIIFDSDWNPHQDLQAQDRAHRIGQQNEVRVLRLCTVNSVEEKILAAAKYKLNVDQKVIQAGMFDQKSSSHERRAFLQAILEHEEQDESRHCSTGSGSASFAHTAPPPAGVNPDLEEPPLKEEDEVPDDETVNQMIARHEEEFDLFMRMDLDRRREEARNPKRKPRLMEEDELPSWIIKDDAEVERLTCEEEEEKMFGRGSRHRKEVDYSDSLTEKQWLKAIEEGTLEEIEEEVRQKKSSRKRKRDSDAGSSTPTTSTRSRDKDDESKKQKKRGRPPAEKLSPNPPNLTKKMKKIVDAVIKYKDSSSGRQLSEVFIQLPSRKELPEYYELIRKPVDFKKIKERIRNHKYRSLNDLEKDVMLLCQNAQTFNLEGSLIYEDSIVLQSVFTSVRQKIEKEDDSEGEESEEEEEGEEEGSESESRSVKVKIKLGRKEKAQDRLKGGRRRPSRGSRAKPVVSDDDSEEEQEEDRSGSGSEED
Sequence of BRM (P51531 whole entry): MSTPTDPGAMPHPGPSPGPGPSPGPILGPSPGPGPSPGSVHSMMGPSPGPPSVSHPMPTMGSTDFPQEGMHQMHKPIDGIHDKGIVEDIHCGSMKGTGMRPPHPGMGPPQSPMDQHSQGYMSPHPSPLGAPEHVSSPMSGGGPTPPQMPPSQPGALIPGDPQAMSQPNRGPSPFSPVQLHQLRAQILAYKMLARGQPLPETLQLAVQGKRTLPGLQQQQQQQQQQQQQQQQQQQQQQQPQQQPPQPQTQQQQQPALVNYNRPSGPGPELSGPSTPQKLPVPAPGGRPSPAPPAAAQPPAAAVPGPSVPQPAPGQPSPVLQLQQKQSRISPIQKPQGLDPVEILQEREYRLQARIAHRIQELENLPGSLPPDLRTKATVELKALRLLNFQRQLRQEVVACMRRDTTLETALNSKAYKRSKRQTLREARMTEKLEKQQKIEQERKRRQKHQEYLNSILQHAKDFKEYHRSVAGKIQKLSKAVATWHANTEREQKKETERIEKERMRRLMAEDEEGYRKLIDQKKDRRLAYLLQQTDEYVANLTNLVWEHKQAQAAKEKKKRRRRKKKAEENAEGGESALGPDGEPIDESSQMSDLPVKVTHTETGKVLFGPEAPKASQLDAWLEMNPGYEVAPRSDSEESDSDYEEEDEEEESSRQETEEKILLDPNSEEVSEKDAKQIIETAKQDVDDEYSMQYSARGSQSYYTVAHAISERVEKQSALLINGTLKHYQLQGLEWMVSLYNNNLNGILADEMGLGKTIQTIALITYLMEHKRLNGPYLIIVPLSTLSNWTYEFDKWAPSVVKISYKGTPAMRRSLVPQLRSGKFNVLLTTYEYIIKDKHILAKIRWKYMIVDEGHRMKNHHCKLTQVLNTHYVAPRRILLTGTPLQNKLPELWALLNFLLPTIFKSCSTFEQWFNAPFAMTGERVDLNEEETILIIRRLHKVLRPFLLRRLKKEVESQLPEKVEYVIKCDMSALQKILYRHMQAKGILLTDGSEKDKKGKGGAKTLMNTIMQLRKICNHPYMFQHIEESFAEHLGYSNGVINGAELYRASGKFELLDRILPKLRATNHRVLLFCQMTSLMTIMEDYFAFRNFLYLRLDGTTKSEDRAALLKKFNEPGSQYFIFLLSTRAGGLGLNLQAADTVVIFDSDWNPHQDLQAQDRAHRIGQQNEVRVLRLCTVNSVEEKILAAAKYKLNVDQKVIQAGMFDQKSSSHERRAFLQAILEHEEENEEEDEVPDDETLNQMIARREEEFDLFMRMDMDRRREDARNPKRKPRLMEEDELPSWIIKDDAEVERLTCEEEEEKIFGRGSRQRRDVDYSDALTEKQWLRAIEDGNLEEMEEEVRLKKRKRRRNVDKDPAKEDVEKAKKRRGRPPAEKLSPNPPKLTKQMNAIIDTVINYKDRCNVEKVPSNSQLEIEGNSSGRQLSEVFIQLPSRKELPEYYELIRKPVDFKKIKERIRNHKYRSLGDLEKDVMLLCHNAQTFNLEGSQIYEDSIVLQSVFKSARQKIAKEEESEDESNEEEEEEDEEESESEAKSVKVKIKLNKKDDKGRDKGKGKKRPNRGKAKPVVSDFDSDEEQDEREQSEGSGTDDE

With `Cn1cccc(-c2ccc3cnc(CNC(=O)c4ccc5c(c4)[C@](C)(C#N)COC5)cc3n2)c1=O` [Compound 510] the “BRM Max % Inhibition” value [1] was 89%, the IC50 [1] was 0.1 to 0.5 µM and the IC50 [2] was greater than 1 µM. For the same molecule, the Emax [2] was 64%.
With `C[C@@]1(C#N)COCc2ccc(C(=O)NCc3cc4cc(-c5ccccc5)cnc4cn3)cc21` [Compound 511] the “BRM Max % Inhibition” value [1] was 96%, the IC50 [1] was less than 0.1 µM and the IC50 [2] was 0.5 to 1 µM. The Emax [2] was 79%.
In the case of `COc1cc(-c2ccc3cnc(CNC(=O)c4ccc5c(c4)[C@](C)(C#N)COC5)cc3n2)ccn1` [Compound 512], the “BRM Max % Inhibition” value [1] is reported as 97%, the IC50 [1] is reported as less than 0.1 µM and the IC50 [2] is reported as 0.5 to 1 µM. It also gave an Emax [2] of 80%.
For `C[C@@]1(C#N)COCc2ccc(C(=O)NCc3cc4nc(-c5cnn(C6COC6)c5)ccc4cn3)cc21` [Compound 513], the “BRM Max % Inhibition” value [1] was 87%, the IC50 [1] was 0.1 to 0.5 µM and the IC50 [2] was greater than 1 µM. It also gave an Emax [2] of 36%.
For `C[C@@]1(C#N)COCc2ccc(C(=O)NCc3cc4nc(N5CCCC5)ccc4cn3)cc21` [Compound 514], the “BRM Max % Inhibition” value [1] was 95%, the IC50 [1] was 0.1 to 0.5 µM and the IC50 [2] was greater than 1 µM. It also gave an Emax [2] of 59%.
With `COc1c(F)cc(F)cc1-c1ccc2cnc(CNC(=O)c3ccc4c(c3)[C@](C)(C#N)COC4)cc2n1` [Compound 515] the “BRM Max % Inhibition” value [1] was 90%, the IC50 [1] was 0.1 to 0.5 µM and the IC50 [2] was 0.5 to 1 µM. It also gave an Emax [2] of 68%.
With `COc1c(F)cccc1-c1ccc2cnc(CNC(=O)c3ccc4c(c3)[C@](C)(C#N)COC4)cc2n1` [Compound 516] the “BRM Max % Inhibition” value [1] was 96%, the IC50 [1] was 0.1 to 0.5 µM and the IC50 [2] was 0.5 to 1 µM. For the same molecule, the Emax [2] was 77%.
In the case of `COc1ccc(F)cc1-c1ccc2cnc(CNC(=O)c3ccc4c(c3)[C@](C)(C#N)COC4)cc2n1` [Compound 517], the “BRM Max % Inhibition” value [1] is reported as 98%, the IC50 [1] is reported as less than 0.1 µM and the IC50 [2] is reported as 0.1 to 0.5 µM. It also gave an Emax [2] of 88%.
With `C[C@@]1(C#N)COCc2ccc(C(=O)NCc3cc4nc(-c5cc(F)cc(F)c5)ccc4cn3)cc21` [Compound 518] the “BRM Max % Inhibition” value [1] was 96%, the IC50 [1] was 0.1 to 0.5 µM and the IC50 [2] was 0.5 to 1 µM. It also gave an Emax [2] of 72%.
In the case of `C[C@@]1(C#N)COCc2ccc(C(=O)NCc3cc4nc(-c5ccc(C(F)F)cc5)ccc4cn3)cc21` [Compound 519], the “BRM Max % Inhibition” value [1] is reported as 96%, the IC50 [1] is reported as less than 0.1 µM and the IC50 [2] is reported as 0.1 to 0.5 µM. It also gave an Emax [2] of 90%.
In the case of `C[C@@]1(C#N)COCc2ccc(C(=O)NCc3cc4nc(-c5cnccn5)ccc4cn3)cc21` [Compound 520], the “BRM Max % Inhibition” value [1] is reported as 88%, the IC50 [1] is reported as 0.1 to 0.5 µM and the IC50 [2] is reported as 0.5 to 1 µM. For the same molecule, the Emax [2] was 53%.
In the case of `C[C@@]1(C#N)COCc2ccc(C(=O)NCc3cc4nc(-c5ccccc5C(F)F)ccc4cn3)cc21` [Compound 521], the “BRM Max % Inhibition” value [1] is reported as 85%, the IC50 [1] is reported as 0.1 to 0.5 µM and the IC50 [2] is reported as greater than 1 µM. It also gave an Emax [2] of 34%.
With `C[C@@]1(C#N)COCc2ccc(C(=O)NCc3ncc4ccc(-c5ccccc5)cc4n3)cc21` [Compound 522] the “BRM Max % Inhibition” value [1] was 97%, the IC50 [1] was 0.1 to 0.5 µM and the IC50 [2] was 0.5 to 1 µM. It also gave an Emax [2] of 83%.
With `COC(=O)N1CCC2CC2(c2ccc3cnc(CNC(=O)c4ccc5c(c4)[C@](C)(C#N)COC5)cc3n2)C1` (some centres unmarked) [Compound 523] the “BRM Max % Inhibition” value [1] was 90%, the IC50 [1] was 0.1 to 0.5 µM and the IC50 [2] was 0.5 to 1 µM. It also gave an Emax [2] of 58%.
In the case of `C[C@@]1(C#N)COCc2ccc(C(=O)NCc3cc4nn(-c5ccccc5)cc4cn3)cc21` [Compound 524], the “BRM Max % Inhibition” value [1] is reported as 95%, the IC50 [1] is reported as 0.1 to 0.5 µM and the IC50 [2] is reported as greater than 1 µM. It also gave an Emax [2] of 50%.
With `O=C(NCc1cc2nc(-c3ccccc3)ccc2cn1)c1ccc2c(c1)[C@@](F)(C(F)F)COC2` [Compound 525] the “BRM Max % Inhibition” value [1] was 97%, the IC50 [1] was 0.1 to 0.5 µM and the IC50 [2] was 0.5 to 1 µM. For the same molecule, the Emax [2] was 69%.
In the case of `C[C@@H]1CN(c2cccc(-c3ccc4[nH]c(CNC(=O)c5ccc6c(c5)[C@](C)(CO)CC6)nc4c3)c2)C[C@H](C)O1` [Compound 526], the “BRM Max % Inhibition” value [1] is reported as 90.7%, the IC50 [1] is reported as 0.1 to 0.5 µM and the IC50 [2] is reported as 0.5 to 1 µM. The Emax [2] was 61.2%.
For `CSCC[C@H](NC(=O)c1ccc(N)cc1)C(=O)Nc1nc(-c2cccc(-c3ccncc3)c2)cs1` [Compound A], the “sensitivity of cell lines to BRG1/BRM inhibition (growth)” value ([3]; uveal melanoma and hematologic cancer cell lines vs other tested cell lines, 0 to 10 micromolar) was “more sensitive to BRG1/BRM inhibition than the other tested cell lines”, the “duration of growth inhibition” value ([3]; uveal melanoma and hematologic cancer cell lines) was “maintained through day 7” and the “growth inhibition compared to clinical PKC (LXS196) and MEK (Selumetinib) inhibitors” value ([4]; 3 days, 0 to 10 micromolar) was “comparable growth inhibition of uveal melanoma cells as the clinical PKC and MEK inhibitors”. For the same molecule, the “onset of inhibition compared to clinical PKC and MEK inhibitors” value [4] was “faster onset of inhibition than the clinical PKC and MEK inhibitors”.
In the case of `CSCC[C@H](NC(=O)c1ccn(S(C)(=O)=O)c1)C(=O)Nc1nc(-c2cccc(-c3ccncc3)c2)cs1` [Compound B, (S)-1-(methylsulfonyl)-N-(4-(methylthio)-1-oxo-1-((4-(3-(pyridin-4-yl)phenyl)thiazol-2-yl)amino)butan-2-yl)-1H-pyrrole-3-carboxamide], the “growth inhibition of parental cell line” value [5] is reported as “strong growth inhibition”, the “growth inhibition compared to clinical PKC (LXS196) and MEK (Selumetinib) inhibitors” value ([6]; 3 days, 0 to 10 micromolar) is reported as “more potent effects on growth inhibition of uveal melanoma cells as compared to the clinical PKC and MEK inhibitors” and the “onset of growth inhibition compared to clinical PKC and MEK inhibitors” value [6] is reported as “faster onset of growth inhibition than the clinical PKC and MEK inhibitors”. For the same molecule, the “growth inhibition in the uveal melanoma cell lines” value [7] was “potent growth inhibition”, the “growth inhibition of PKCi-resistant cell line” value ([8]; FIG. 7B) was “strong growth inhibition” and the “sensitivity of PKCi-resistant cells relative to parental MP41 cells” value ([8]; FIG. 7B) was “more sensitive to Compound B than were the parental MP41 cells”.
With `C[C@@H]1CN(c2cccc(-c3csc(NC(=O)CNC(=O)c4ccn(C(C)(C)C)c4)n3)n2)C[C@H](C)O1` [Compound C, 1-(tert-butyl)-N-(2-((4-(6-(cis-2,6-dimethylmorpholino)pyridin-2-yl)thiazol-2-yl)amino)-2-oxoethyl)-1H-pyrrole-3-carboxamide] the “tolerability / body weight change” value [9] was “well tolerated with no body weight loss observed”.
With `CC1(N)CCN(c2cccnc2NC(=O)c2nc(-c3ncccc3C(F)(F)F)cnc2N)CC1` [LXS196, reference compound] the “tolerated concentration for growth, PKCi-resistant vs parental cells” value ([8]; FIG. 7A) was “could tolerate growth at higher concentrations of LXS196 than could the parental MP41 cell line”.

Reference: patent US12441726B2, “Compounds and uses thereof” (Foghorn Therapeutics Inc., priority 2020, dated 2025)
